Source: ChEMBL document CHEMBL6109133, “Towards P2X4 Positron Emission Tomography Tracing” (J Med Chem, 2025)
pIC50: −log10 of the molar value.

Tests used:
[1] = target: T1, P2X purinoceptor 4 (Homo sapiens, UniProt Q99571); test: Antagonist activity at human P2X4 receptor
T1 sequence (Q99571 whole entry): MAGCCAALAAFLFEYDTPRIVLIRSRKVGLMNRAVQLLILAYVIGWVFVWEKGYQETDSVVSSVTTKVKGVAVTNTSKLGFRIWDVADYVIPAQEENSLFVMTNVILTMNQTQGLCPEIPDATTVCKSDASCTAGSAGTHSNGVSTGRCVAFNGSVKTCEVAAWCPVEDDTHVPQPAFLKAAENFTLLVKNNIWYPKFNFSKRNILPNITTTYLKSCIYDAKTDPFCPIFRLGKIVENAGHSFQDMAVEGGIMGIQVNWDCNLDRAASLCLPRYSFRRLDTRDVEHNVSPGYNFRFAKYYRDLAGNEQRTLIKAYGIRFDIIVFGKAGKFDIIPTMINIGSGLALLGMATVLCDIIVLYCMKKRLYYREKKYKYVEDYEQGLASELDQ

[2] = Plasma protein binding in mouse; type: ADME, cell-free; details: read-out: PPB

Q: Which results are given for `Cc1cc(F)ccc1CS(=O)(=O)Nc1ccc(N2C(=O)CC(=O)Nc3c2ccc2ccccc32)cc1`?
A: pIC50 [1]: 8.10; fraction unbound [2]: < 0.02

Q: Which results are given for `Cc1cc(F)ccc1S(=O)(=O)Nc1ccc(N2C(=O)CC(=O)Nc3c2ccc2ccccc32)cc1`?
A: pIC50 [1]: 7.19; fraction unbound [2]: < 0.02
